Where “and” joins values, the source holds several entries; their conditions need not be identical. Equal values may be shown once. Read-outs that look alike come from different tables or passages of the source.
Tests used:
[1] = Pharmacokinetics in monkey plasma after oral dosing; assay type: in vivo
apo(a) KIV2 = molecular target: T1, apo(a) KIV2 (Homo sapiens, UniProt P08519); test: ITC binding to apo(a) KIV2; conditions: for binding to KIV2 / Kd: ITC; for binding to KIV2: in words; for Fold-difference (KIV2:KIV8): ratio of ITC Kd values KIV2:KIV8
T1 construct: made in house
T1 sequence (P08519 141-219 limits assumed): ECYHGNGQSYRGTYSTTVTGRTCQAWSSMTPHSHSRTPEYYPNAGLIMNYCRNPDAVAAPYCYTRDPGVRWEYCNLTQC
Description: The nucleotide sequence encoding the human LPA gene (NP_005568.2) was inserted into a mammalian expression vector containing a cytomegalovirus promoter. Protein expression was performed by transient transfection of human embryonic kidney 293 (HEK293) cells cultured in serum-free medium. The culture medium was collected five days after transfection and human apo(a) protein was purified using L-lysine affinity chromatography. Nucleotide sequences encoding various KIV domains of human apo(a) and human and rat plasminogen were inserted into a pET21a Escherichia coli expression vector. Bacterial BL21(DE3) was used as the expression host, and the induction of protein expression was performed in 2× TY medium with 1 mM isopropyl β-D-1-thiogalactopyranoside at 37 °C for 5 h. Cells were collected and stored at –80 °C for subsequent protein purification and refolding. The frozen cell pellets were lysed and inclusion bodies were purified. The protein refolding was performed using the rapid-dilution method, and the refolded proteins were further purified by size-exclusion chromatography. All protein concentrations were determined by A280.
Experiments were performed on a MicroCal Auto-iTC200 titration calorimeter (Malvern Panalytical), with a cell volume of 200 μl and a 40-μl microsyringe. Experiments were performed at 25 °C while stirring at 750 rpm in ITC buffer (50 mM phosphate buffer at pH 8.0). The microsyringe was loaded with a solution of the respective compounds, with the concentration measured by quantitative nuclear magnetic resonance, and was inserted into the calorimetric cell prefilled with the respective recombinant proteins of known concentration in ITC buffer. The system was equilibrated to 25 °C and an extra delay of 60 s was applied. The first titrations were performed using an initial control injection of 0.5 μl, followed by 18 identical injections of 2 μl, with a duration of 4 s per injection and 150-s intervals between injections. The second titration was performed over the first titration without cleaning the cell and was carried out with continuous injections as an automation method in a MicroCal Auto-iTC200. The second titrations were performed using 19 identical injections of 2 μl, with a duration of 4 s per injection and 150-s injection intervals. The data were corrected for ligand heats of dilution and were deconvoluted using MicroCal PEAQ-ITC Analysis Software to yield the enthalpy of binding (ΔH) and the binding constant (K). Thermodynamic parameters were calculated using the basic equation of thermodynamics (ΔG = ΔH – TΔS = –RTlnKd), where ΔG, ΔH and ΔS are the changes in free energy, enthalpy and entropy of binding, respectively; Kd is the equilibrium dissociation constant; T is the absolute temperature (kelvins); and R is the gas constant (1.987 cal mol^−1 K^−^1). A single-binding-site model was used in MicroCal PEAQ-ITC Analysis Software v.0.9.

Lp(a) = Lp(a) levels in LPA × ApoB100 transgenic mice; assay type: in vivo, mouse; parameters: Lp(a) / Diff_vs_Vehicle: unit not given here; conditions: for % max Lp(a) decrease (dose, mg/kg): Lp(a) transgenic mice section; for % Lp(a) max decrease / ED50: BID, 5 days dosing; for Percent_change_from_Vehicle / Diff_vs_Vehicle: Lp(a); for Diff_vs_Vehicle: group statistics; for ED50: Mus musculus, 120 h
Description: The LPA gene (GenBank accession code NM_005577) encoding the human apo(a) protein with a signal peptide, one KIV type 1, six KIV type 2 repeats, one each of KIV types 3–10, one KV and one protease domain was subcloned into a transgenic vector containing a mouse albumin promoter cassette and a human growth hormone polyadenylation signal. The transgenic mouse line was generated by pronucleus injection of the LPA transgenic vector. Eight individual transgenic founder mice were assessed for germline transmission of LPA by genotyping and assessment of the levels of apo(a) in the plasma. Positive founder mice were crossed with ApoB100 transgenic mice (Taconic model 1004), and the resulting mouse line nomenclature (B6.SJL-Tg(APOB)1102Sgy Tg(Alb-LPA)32Arte) was selected on the basis of the confirmation of germline transmission, the identification of LPA and huApoB100 transgenes and the levels of Lp(a) in the plasma. Mice hemizygous for both transgenes were used for pharmacology studies. The studies were conducted in female Lp(a) double transgenic mice (age around 7–17 months). Mice were housed in cages with a standard light cycle (12-h light, 12-h dark), at room temperature (22 ± 4 °C), with a relative humidity of 30–70%. Mice were identified by numbers on the cage cards. After arrival, mice were fed on a normal diet (Harlan Teklad diet 2014). Mice were randomized to treatment groups (n = 5 per group, unless otherwise noted) by body weight and baseline plasma Lp(a) concentration using a block randomized allocation tool (BRAT) for the study. In an example Lp(a) transgenic mouse study in which 66 mice were prescreened for baseline Lp(a) levels, the average Lp(a) level was 45 ± 1.8 µg ml^−1 (range 20–78 µg ml^−1). Mice were dosed with various compounds in vehicle (10 ml kg^−1, 1% hydroxyethyl cellulose (HEC), 0.25% Tween-80, Antifoam) or with vehicle alone as a control orally BID for five days. Blood samples were collected by tail bleeds at designated times, and Lp(a) levels were determined by ELISA by an investigator who was blinded to group allocation. In brief, lipoprotein particles were captured by a goat anti-Lp(a)-antibody-coated plate (Abcam ab31675, diluted 1:12,500 in HEPES-buffered saline), the plates were washed and samples were detected using an HRP-conjugated goat anti-apoB antibody (Abcam ab27622, diluted 1:3,000). Colorimetric peroxidase substrate 3,3’,5,5’-TMB was added, and the reaction was stopped using 1 N sulfuric acid. Absorbance at 450 nm was read on a Molecular Devices SpectraMax plate reader. Blood samples were collected at four hours after dosing on day 5 of dosing to confirm exposure. Full pharmacokinetic (PK) profiles were not evaluated. Concentrations of compounds were evaluated from dried blood spots through a non-Good Laboratory Practice (GLP) liquid chromatography with tandem mass spectrometry (LC–MS/MS) assay. Data were analysed in GraphPad Prism v.9.5.1

[2] = cynomolgus, oral 20 mg/kg, day 14
[3] = cynomolgus, oral 40 mg/kg, day 14
[4] = Lp(a) transgenic mice, oral BID, five days
[5] = transgenic mice, 3mpk oral BID five days, individual animal, 3 mg/kg
[6] = transgenic mice, 10mpk oral BID five days, individual animal, 10 mg/kg
[7] = transgenic mice, 30mpk oral BID five days, individual animal, 30 mg/kg
[8] = transgenic mice, 100mpk oral BID five days, individual animal, 100 mg/kg
[9] = cynomolgus, oral 2 mg/kg, day 14
[10] = cynomolgus, oral 10 mg/kg, day 14
[11] = transgenic mice, 1mpk oral BID five days, individual animal, 1 mg/kg
[12] = 1mpk, individual animals, Fig 3f data
[13] = 3mpk, individual animals, Fig 3f data
[14] = 10mpk, individual animals, Fig 3f data
[15] = 30mpk, individual animals, Fig 3f data

binding to KIV2 (apo(a) KIV2) | Kd (apo(a) KIV2) [nM] | Fold-difference (KIV2:KIV8) (apo(a) KIV2) | SMILES | % Lp(a) max decrease (Lp(a); Lp(a) transgenic mice) [%] | ED50 for Lp(a) reduction (Lp(a); [4]) [mg/kg] | Percent_change_from_Vehicle (Lp(a); [5]) | Diff_vs_Vehicle (Lp(a); transgenic mice, 3mpk) | Percent_change_from_Vehicle (Lp(a); [6]) | Diff_vs_Vehicle (Lp(a); transgenic mice, 10mpk) | Percent_change_from_Vehicle (Lp(a); [7]) | Diff_vs_Vehicle (Lp(a); transgenic mice, 30mpk) | ED50 (Lp(a); Lp(a) transgenic mice) [mg/kg] | Lp(a) (Lp(a); [5]) | Lp(a) (Lp(a); [6]) | Lp(a) (Lp(a); [7]) | Diff_vs_Vehicle (Lp(a); transgenic mice, 1mpk) | other results
does not bind |  |  | Cl.O=C(O)[C@@H](Cc1ccccc1)[C@H]1CCNC1 [LSN3353871] | 78 | 14 | -29.9395% and -21.6818% and -23.4274% and -25.3773% and -20.1775% | -3.8966 | -56.5511% and -68.7767% and -51.9146% and -54.3536% | -9.353 | -73.0355% and -73.0232% and -55.5978% and -55.3749% and -63.9731% | -10.3714 | 14 | 11.318 and 12.652 and 12.37 and 12.055 and 12.895 | 7.019 and 5.044 and 7.768 and 7.374 | 4.356 and 4.358 and 7.173 and 7.209 and 5.82 |  | Cmax [1, 2]: 22.3 µM; Tmax [1, 2]: 1.5 ± 0.5 h; AUC(0-t) ([1]; cynomolgus, oral 20 mg/kg, day 14, read-out: AUC(0–12 h)): 136 µM·h; Cmax [1, 3]: 29.6 µM; Tmax [1, 3]: 1.5 ± 0.5 h; AUC(0-t) ([1]; cynomolgus, oral 40 mg/kg, day 14, read-out: AUC(0–12 h)): 210 µM·h; % max Lp(a) decrease (dose, mg/kg) (Lp(a); dose 20 mg/kg): 40 (20) %; maximum decrease in Lp(a) levels (Lp(a); [4]): up to 78%; Percent_change_from_Vehicle (Lp(a); [8]): -69.9343% and -77.4368% and -71.3085% and -83.0203% and -88.6967%; Diff_vs_Vehicle (Lp(a); transgenic mice, 100mpk): -12.6134; Lp(a) (Lp(a); [8]): 4.857 and 3.645 and 4.635 and 2.743 and 1.826
ruled out | 130000 | >13000 | Cl.Cl.O=C(Nc1cccc(C[C@H](C(=O)O)[C@H]2CCNC2)c1)Nc1cccc(C[C@H](C(=O)O)[C@H]2CCNC2)c1 [LSN3441732] | 79 | 4 | -66.5236% and -51.6627% and -46.9156% and -38.737% and -24.3395% | -17.8805 | -76.5617% and -56.1229% and -72.4537% and -56.7885% and -51.1958% | -24.5369 | -63.8115% and -85.6659% and -79.4795% and -86.8495% and -81.3358% | -31.1209 | 4 | 13.1164 and 18.9391 and 20.799 and 24.0035 and 29.6445 | 9.183 and 17.1915 and 10.7929 and 16.9307 and 19.122 | 14.179 and 5.616 and 8.04 and 5.1525 and 7.3128 | -9.583 | Cmax [1, 9]: 0.754 ± 0.428 µM; Tmax [1, 9]: 3.81 ± 2.14 h; AUC(0-t) ([1]; cynomolgus, oral 2 mg/kg, day 14, read-out: AUC(0-96 hr)): 5.63 µM·h; Cmax [1, 10]: 4.38 µM; Tmax [1, 10]: 2.06 ± 1.32 h; AUC(0-t) ([1]; cynomolgus, oral 10 mg/kg, day 14, read-out: AUC(0-96 hr)): 22.2 µM·h; % max Lp(a) decrease (dose, mg/kg) (Lp(a); dose 30 mg/kg): 79 (30) %; mean maximal inhibition of Lp(a) (Lp(a); Lp(a) transgenic mice, 30 mg kg^−1 oral BID, five days): 79%; Percent_change_from_Vehicle (Lp(a); [11]): -26.3802% and -29.1802% and -35.4498% and -52.0742% and 20.793%; Lp(a) (Lp(a); [11]): 28.845 and 27.7479 and 25.2914 and 18.7778 and 47.3279
 | 3900 | 177 | O=C(O)[C@@H](Cc1cccc(CN(Cc2cccc(C[C@H](C(=O)O)[C@H]3CCNC3)c2)Cc2cccc(C[C@H](C(=O)O)[C@H]3CCNC3)c2)c1)[C@H]1CCNC1 [LY3473329] | 91.2 |  |  | -6.3714 |  | -8.8948 |  | -9.8776 | 3 |  |  |  | -1.9212 | Cmax ([1]; Chinese cynomolgus, oral 1 mg/kg, day 15): 0.911 ± 0.225 µM; AUC(0-t) ([1]; Chinese cynomolgus, oral 1 mg/kg, day 15, read-out: AUC(0-96 hr)): 35.8 µM·h; Tmax ([1]; Chinese cynomolgus, oral 10 mg/kg, day 15): 0.5 h; Cmax ([1]; Chinese cynomolgus, oral 100 mg/kg, day 15): 4.85 µM; Lp(a) (Lp(a); [12]): 7.93 and 10.403 and 8.938 and 8.912 and 9.52; Percent_change_from_Vehicle (Lp(a)) (Lp(a); [12]): -28.3118% and -5.956% and -19.1994% and -19.4345% and -13.9381%; Lp(a) (Lp(a); [13]): 3.393 and 6.014 and 3.723 and 4.125 and 6.197; Percent_change_from_Vehicle (Lp(a)) (Lp(a); [13]): -69.3269% and -45.6327% and -66.3436% and -62.7095% and -43.9784%; Lp(a) (Lp(a); [14]): 2.124 and 2.374 and 3.019 and 1.686 and 1.632; Percent_change_from_Vehicle (Lp(a)) (Lp(a); [14]): -80.7988% and -78.5388% and -72.7079% and -84.7584% and -85.2465%; Lp(a) (Lp(a); [15]): 1.195 and 0.994 and 1.853 and 0.894 and 0.985; Percent_change_from_Vehicle (Lp(a)) (Lp(a); [15]): -89.1971% and -91.0141% and -83.2487% and -91.9181% and -91.0955%; % max Lp(a) decrease (dose, mg/kg) (Lp(a); dose 100 mg/kg): 91.2 (100) %

— publication PMC11111404, “Discovery of potent small-molecule inhibitors of lipoprotein(a) formation” (Nature, 2024)
